pEC50, pIC50: −log10 of the molar value.
How the values were obtained:
[1] = molecular target: T1, muscle-type nicotinic acetylcholine receptor (nAChR) (Torpedo marmorata, UniProt P02711+Q6S3H8+Q6S3H9+Q6S3I0); assay: two-electrode voltage clamp, ACh concentration-current curve (agonist); format: cell-based
T1 construct: gene CHRNA1; native nAChR purified from electroplax, reconstituted in asolectin lipids and microtransplanted to Xenopus oocytes; with β, γ and δ subunits of the heteropentamer

[2] = molecular target: T1, muscle-type nicotinic acetylcholine receptor (nAChR); assay: two-electrode voltage clamp, inhibition of currents evoked by […] ACh at −[…] mV; format: cell-based

T1 sequence (P02711 25-461): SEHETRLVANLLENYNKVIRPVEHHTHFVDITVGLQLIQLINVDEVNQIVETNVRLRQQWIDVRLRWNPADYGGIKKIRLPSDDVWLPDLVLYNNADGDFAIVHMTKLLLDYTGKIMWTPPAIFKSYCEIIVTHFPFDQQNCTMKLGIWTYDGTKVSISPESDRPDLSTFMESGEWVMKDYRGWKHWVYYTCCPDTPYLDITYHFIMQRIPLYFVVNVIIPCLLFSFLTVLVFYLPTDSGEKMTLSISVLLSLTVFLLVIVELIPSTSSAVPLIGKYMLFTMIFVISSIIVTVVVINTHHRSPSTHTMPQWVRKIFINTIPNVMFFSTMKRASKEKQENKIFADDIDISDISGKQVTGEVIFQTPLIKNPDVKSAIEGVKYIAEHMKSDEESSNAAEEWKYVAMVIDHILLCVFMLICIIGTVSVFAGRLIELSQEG
T1 sequence (Q6S3I0 25-493): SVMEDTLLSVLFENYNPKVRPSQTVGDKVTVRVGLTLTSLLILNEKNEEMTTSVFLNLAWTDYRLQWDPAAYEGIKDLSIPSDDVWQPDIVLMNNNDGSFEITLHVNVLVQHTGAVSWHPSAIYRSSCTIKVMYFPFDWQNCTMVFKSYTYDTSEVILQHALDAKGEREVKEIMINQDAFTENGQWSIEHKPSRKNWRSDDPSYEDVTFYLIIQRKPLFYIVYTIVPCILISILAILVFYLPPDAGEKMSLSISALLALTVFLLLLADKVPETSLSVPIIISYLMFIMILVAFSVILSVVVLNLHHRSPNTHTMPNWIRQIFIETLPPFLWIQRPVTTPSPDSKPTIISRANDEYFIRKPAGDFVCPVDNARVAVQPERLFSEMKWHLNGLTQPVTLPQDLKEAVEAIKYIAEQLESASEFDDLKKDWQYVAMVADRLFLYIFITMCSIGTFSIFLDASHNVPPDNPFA
T1 sequence (Q6S3H9 18-505): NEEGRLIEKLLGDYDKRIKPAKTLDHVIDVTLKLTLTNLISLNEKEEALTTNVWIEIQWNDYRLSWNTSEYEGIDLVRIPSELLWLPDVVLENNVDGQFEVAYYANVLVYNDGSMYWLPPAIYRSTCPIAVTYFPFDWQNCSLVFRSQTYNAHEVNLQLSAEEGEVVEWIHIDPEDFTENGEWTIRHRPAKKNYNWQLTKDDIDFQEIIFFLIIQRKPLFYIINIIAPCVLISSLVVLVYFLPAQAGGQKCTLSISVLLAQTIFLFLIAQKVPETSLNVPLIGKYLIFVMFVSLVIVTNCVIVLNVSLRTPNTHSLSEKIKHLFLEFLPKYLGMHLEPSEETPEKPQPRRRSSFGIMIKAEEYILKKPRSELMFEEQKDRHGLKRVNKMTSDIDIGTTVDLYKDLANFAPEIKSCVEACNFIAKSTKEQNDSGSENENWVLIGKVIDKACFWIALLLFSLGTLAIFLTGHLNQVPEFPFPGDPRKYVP
T1 sequence (Q6S3H8 22-522): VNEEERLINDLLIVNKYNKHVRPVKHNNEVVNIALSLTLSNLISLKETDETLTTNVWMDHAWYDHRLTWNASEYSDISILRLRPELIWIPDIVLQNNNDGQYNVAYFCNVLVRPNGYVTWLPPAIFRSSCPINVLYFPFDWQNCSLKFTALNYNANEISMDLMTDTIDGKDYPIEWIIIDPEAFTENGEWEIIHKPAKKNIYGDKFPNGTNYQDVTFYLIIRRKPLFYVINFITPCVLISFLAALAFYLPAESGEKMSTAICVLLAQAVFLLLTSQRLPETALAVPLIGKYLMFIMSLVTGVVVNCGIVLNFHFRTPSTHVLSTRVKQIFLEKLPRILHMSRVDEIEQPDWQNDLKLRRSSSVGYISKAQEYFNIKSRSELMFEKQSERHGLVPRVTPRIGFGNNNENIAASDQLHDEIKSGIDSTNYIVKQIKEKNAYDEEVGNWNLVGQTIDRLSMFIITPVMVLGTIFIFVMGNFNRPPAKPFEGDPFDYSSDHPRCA

| SMILES | pEC50 [1] | pIC50 [2] |
| --- | --- | --- |
| CC(=O)OCC[N+](C)(C)C [ACh, acetylcholine] | 4.34 |  |
| CCNCC [DEA, diethylamine] |  | 4.17 |
